Active and inactive are the calls of the source.
Columns and labels:
Beta-lactamase [1] = molecular target: Beta-lactamase (Salmonella choleraesuis (strain SC-B67), UniProt Q5J463); test: Epi-absorbance-based counterscreen for selective VIM-2 inhibitors: dose response biochemical high throughput screening assay to identify inhibitors of TEM-1 serine-beta-lactamase.
Beta-lactamase [2] = molecular target: T1, Beta-lactamase (Pseudomonas aeruginosa, UniProt Q79MP6); test: IMP-1 metallo-beta-lactamase inhibitors, dose response, selectivity assay for VIM-2 inhibitor project, biochemical, epi-absorbance (AID 1920)
T1 sequence (Q79MP6 whole entry): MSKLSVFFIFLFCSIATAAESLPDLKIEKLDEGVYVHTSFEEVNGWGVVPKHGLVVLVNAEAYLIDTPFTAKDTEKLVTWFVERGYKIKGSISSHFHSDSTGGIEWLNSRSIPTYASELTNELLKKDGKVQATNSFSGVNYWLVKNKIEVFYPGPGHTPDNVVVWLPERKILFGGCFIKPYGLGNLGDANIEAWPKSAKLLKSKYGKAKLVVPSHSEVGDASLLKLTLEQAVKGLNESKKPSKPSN

Beta-lactamase [3] = molecular target: T1, Beta-lactamase; test: […] counterscreen for selective VIM-2 inhibitors: dose response biochemical high throughput screening assay to identify inhibitors of IMP-1 metallo-beta-lactamase.
[4] = molecular target: Fructose-bisphosphate aldolase (Mycobacterium tuberculosis, UniProt P9WQA3); test: Fluorescence-based biochemical high throughput dose response assay for inhibitors of the fructose-bisphosphate aldolase (FBA) of M. tuberculosis.; format: functional
Fructose-bisphosphate aldolase, sequence (P9WQA3 whole entry): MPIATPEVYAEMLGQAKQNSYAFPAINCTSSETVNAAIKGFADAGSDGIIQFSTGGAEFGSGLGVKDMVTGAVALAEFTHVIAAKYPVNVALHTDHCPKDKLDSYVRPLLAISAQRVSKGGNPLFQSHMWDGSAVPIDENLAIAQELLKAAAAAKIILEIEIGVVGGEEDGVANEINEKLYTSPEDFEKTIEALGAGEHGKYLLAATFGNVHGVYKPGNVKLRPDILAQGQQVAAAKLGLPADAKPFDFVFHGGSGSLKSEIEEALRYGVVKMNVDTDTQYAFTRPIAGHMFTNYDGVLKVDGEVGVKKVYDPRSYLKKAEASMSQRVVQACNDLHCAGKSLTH

Aminopeptidase N = molecular target: T2, Aminopeptidase N (Plasmodium falciparum FcB1/Columbia, UniProt O96935); test: P. falciparum M1AAP inhibitors, biochemical, fluorogenic H-Leu-NHMec substrate, 1536-well (AID 1445); set-up: species or system Plasmodium falciparum 3D7, 3D7
T2 sequence (O96935 whole entry): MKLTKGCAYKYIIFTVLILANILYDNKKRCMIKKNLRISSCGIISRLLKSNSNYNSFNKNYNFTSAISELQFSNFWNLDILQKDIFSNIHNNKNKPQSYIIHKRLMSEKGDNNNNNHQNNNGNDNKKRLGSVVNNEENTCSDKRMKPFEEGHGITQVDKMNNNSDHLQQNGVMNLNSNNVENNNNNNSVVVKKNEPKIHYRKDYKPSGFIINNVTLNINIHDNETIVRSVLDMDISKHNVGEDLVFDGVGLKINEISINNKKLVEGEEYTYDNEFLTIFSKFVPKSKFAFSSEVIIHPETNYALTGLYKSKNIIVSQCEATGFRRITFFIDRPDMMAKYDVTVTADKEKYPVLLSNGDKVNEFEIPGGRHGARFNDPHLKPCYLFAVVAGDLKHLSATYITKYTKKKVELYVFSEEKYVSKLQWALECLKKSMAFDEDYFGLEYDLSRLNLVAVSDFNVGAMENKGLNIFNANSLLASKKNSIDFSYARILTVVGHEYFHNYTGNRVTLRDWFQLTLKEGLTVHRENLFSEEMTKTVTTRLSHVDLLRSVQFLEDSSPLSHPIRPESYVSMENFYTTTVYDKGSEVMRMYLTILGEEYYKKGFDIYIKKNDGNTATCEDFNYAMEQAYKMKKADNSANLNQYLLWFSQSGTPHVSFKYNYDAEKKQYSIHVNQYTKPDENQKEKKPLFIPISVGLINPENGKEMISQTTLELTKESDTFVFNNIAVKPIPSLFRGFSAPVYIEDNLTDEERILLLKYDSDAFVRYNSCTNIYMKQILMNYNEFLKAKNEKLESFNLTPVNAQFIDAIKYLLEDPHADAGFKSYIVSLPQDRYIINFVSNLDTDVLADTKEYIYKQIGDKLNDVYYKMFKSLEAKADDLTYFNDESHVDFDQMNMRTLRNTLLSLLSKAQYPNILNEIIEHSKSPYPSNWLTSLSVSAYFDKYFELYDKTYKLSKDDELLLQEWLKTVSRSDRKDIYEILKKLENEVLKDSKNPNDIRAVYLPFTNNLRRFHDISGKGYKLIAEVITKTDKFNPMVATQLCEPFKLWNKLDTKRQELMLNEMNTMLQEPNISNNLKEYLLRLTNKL

[5] = HEK293T cytotoxicity, dose response, cytotoxicity control for miR-122 modulator project, cell-based, inhibitor set, cherry-pick, set 2 (AID 720697); format: functional
[6] = miR-122 activators in hepatoma reporter cells, dose response, cell-based, Huh7 psiCHECK-miR122, Renilla luciferase, cherry-picked (AID 651956); format: functional;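 note: huh7 hepatoma cells stably carrying a psiCHECK-2 miR-122 sensor plasmid; renilla luciferase signal reporting endogenous miR-122 activity after 48 h compound exposure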
[7] = molecular target: Tyrosine-protein phosphatase non-receptor type 11 (Homo sapiens, UniProt Q06124); test: SHP2 phosphatase inhibition, dose response, selectivity assay for STEP inhibitor project, biochemical (AID 602367); format: functional; conditions: read-out: IC50_Mean
[8] = molecular target: Dual specificity protein phosphatase 3 (Homo sapiens, UniProt P51452); test: VHR phosphatase inhibition, dose response, selectivity assay for STEP inhibitor project, biochemical (AID 602374); format: functional; conditions: read-out: IC50_Mean
Dual specificity protein phosphatase 3, sequence (P51452 whole entry): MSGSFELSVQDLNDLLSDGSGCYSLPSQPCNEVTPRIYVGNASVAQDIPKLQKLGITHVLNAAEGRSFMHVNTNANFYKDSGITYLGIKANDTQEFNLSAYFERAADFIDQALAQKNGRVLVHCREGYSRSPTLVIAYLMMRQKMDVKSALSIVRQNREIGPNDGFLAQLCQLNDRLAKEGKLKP

[9] = molecular target: Tyrosine-protein phosphatase non-receptor type 5 (Homo sapiens, UniProt P54829); test: STEP phosphatase inhibitors, confirmation, biochemical, fluorescence intensity, uHTS hits (AID 602372); format: functional; conditions: read-out: IC50_Mean
Tyrosine-protein phosphatase non-receptor type 5, sequence (P54829 whole entry): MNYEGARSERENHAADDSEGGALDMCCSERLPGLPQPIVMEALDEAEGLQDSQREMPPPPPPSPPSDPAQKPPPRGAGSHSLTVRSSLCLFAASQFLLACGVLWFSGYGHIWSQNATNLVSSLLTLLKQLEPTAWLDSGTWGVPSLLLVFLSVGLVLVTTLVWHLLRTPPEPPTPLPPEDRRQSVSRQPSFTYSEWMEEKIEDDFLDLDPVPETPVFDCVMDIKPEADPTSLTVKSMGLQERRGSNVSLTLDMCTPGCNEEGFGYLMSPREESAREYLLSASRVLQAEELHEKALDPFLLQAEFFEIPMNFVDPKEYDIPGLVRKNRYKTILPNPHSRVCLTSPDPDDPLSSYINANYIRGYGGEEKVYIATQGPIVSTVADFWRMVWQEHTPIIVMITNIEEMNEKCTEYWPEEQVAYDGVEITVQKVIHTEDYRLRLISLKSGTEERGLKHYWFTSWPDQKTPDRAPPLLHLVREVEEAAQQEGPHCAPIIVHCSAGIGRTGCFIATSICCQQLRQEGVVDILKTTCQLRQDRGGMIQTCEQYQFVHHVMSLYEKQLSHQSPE

[10] = molecular target: T3, Tyrosine-protein phosphatase non-receptor type 22 (Homo sapiens, UniProt Q9Y2R2); test: PTPN22 phosphatase inhibition, dose response, selectivity assay for STEP inhibitor project, biochemical (AID 624241); format: functional
T3 sequence (Q9Y2R2 whole entry): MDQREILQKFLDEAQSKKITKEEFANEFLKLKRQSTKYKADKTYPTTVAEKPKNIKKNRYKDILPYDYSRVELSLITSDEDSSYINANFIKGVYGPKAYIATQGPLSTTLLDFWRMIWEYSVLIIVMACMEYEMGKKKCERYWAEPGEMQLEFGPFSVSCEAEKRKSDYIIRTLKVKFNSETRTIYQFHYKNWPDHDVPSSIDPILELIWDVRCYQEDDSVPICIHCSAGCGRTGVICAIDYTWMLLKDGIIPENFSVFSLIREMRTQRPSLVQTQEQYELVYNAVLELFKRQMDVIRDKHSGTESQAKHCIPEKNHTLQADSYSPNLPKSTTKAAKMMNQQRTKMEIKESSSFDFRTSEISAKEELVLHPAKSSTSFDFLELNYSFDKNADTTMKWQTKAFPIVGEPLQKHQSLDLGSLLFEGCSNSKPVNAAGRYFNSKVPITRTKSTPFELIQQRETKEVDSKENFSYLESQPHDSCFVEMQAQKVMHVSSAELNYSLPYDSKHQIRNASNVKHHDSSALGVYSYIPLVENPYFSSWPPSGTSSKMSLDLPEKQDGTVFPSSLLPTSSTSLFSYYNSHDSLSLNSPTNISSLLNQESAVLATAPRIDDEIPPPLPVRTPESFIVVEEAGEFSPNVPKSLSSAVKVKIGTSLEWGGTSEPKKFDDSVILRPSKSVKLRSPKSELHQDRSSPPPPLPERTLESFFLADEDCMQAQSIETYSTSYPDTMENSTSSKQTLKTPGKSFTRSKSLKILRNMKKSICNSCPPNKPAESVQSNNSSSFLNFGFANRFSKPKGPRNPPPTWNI

Vero = test: Vero cell toxicity, dose response, cytotoxicity control, plate reader, cherry-pick samples (AID 687020); format: functional, cell-based; conditions: Chlorocebus sabaeus
[11] = inhibitors of clade B AD8 Env fusion, dose response, cell-based, cherry-pick (AID 652062); format: functional;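 note: luciferase signal from cell-cell fusion driven by HIV-1 clade B AD8 Env; potency is for inhibitors of fusion seen as a drop in luminescence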
[12] = off-target signal loss in HeLa-CEM21 co-culture – HeLa F-luc CTL cells, cherry-picked, counter-screen for HIV-1 Env fusion inhibitor project, dose response (AID 652040); format: functional, cell-based;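 note: potency for signal decrease marking cytotoxic or nonspecific inhibition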
[13] = inhibitors of HIV Env-driven cell fusion, dose response, cherry-pick (AID 652057); format: functional, cell-based
[14] = MC4R antagonists, dose response, counter-screen for LGR2 antagonist project, cell-based, plate reader, cherry pick (AID 743444); format: functional;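 note: transfected HEK 293 cells stimulated with alpha-MSH peptide; potency of inhibitors of the alpha-MSH evoked signal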
[15] = cytotoxicity in HEK-293T cells, dose response, cytotoxicity control for BCR NF-kB inhibitor project, luminescence, B-cell screen hits (AID 489021); format: functional, cell-based;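 note: HEK-293T cells carrying an NF-kB luciferase reporter; cells exposed to compound for about 14 hours before viability readout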
[16] = HepG2 cell cytotoxicity, dose response, cytotoxicity control, plate reader, cherry-pick, antagonist series (AID 743416); format: functional, cell-based
[17] = HEK293 cell cytotoxicity, dose response, cytotoxicity control, plate reader, cherry-picked samples (AID 743446); format: functional, cell-based
INS1 = test: beta cell apoptosis inhibitors, cytokine rescue, dose response, luminescence, retest (AID 449756); format: functional, cell-based; conditions: Rattus norvegicus;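 note: cell death triggered by IL-1 beta plus TNF-alpha plus IFN-gamma mixture; protective hits raise ATP signal compared with cytokine alone wells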
[18] = CEM21 lymphoblast cell cytotoxicity, dose response, cytotoxicity control for viral fusion inhibitor project, CellTiter-Glo luminescence, cherry-picked (AID 652042); format: functional, cell-based;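 note: potency for signal decrease meaning cytotoxicity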
[19] = ZM109 Env clade C HIV-1 fusion inhibitors, dose response, HeLa effector, CEM target cells, luciferase, cherry-pick (AID 652058); format: functional, cell-based
[20] = LGR2 antagonists, dose response, cell-based, HEK293, CRE-luciferase reporter, cherry pick, set 2 (AID 743343); format: functional;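 note: transfected cells were stimulated with diluted bursicon conditioned medium after compound addition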
[21] = A549 cell cytotoxicity, dose response, cytotoxicity control, plate reader, cherry-pick, antagonist series (AID 743412); format: functional, cell-based
[22] = HeLa cell cytotoxicity, dose response, cytotoxicity control for MgcRacGAP inhibitor project (AID 624300); format: functional
[23] = molecular target: Glucose-6-phosphate 1-dehydrogenase (Homo sapiens, UniProt P11413); test: human G6PD enzyme inhibitors, dose response, selectivity assay for P. falciparum G6PD inhibitor project, biochemical, fluorescence (AID 504792); format: functional
Glucose-6-phosphate 1-dehydrogenase, sequence (P11413 whole entry): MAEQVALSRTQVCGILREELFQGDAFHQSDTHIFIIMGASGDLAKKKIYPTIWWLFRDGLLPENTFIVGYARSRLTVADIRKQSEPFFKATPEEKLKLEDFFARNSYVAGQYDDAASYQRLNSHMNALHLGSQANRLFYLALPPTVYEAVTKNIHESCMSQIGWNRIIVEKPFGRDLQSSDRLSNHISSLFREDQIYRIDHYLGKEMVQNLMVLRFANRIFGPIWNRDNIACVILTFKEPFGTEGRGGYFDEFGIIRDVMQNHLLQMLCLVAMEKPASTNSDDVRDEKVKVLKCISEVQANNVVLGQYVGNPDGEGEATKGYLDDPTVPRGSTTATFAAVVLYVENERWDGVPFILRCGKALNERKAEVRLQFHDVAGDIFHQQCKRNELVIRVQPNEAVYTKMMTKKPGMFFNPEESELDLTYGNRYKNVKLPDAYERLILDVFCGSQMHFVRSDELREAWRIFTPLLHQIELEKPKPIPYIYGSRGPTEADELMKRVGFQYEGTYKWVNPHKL

A549 = test: A549 cell toxicity, dose response, cytotoxicity control, plate reader, cherry-pick samples (AID 687028); format: functional, cell-based; conditions: Homo sapiens
Paired box protein Pax-8 = Paired box protein Pax-8 (Homo sapiens, UniProt Q06710); test: inhibitors of PAX8-driven TPO luciferase reporter, dose response, RMG-I cells, cherry-pick (AID 687027); format: functional, cell-based;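 note: luciferase reporter driven by Pax8 target thyroperoxidase promoter measured by SteadyGlo luminescence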
Paired box protein Pax-8, sequence (Q06710 whole entry): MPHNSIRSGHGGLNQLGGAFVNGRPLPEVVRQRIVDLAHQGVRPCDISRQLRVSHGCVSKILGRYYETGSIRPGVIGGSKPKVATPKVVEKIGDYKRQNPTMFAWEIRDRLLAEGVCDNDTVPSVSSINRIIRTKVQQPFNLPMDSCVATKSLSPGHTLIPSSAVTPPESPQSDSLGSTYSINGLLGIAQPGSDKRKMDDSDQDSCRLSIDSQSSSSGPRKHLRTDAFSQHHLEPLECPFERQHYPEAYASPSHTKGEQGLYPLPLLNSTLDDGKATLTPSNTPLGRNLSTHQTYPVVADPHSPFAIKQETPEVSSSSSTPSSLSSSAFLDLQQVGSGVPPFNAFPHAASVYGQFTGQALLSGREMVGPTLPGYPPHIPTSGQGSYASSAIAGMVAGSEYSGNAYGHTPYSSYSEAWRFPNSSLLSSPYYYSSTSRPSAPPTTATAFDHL

[24] = Counterscreen for activators of the function of SWI/SNF related, matrix associated, actin dependent regulator of chromatin, subfamily a, member 2 (SMARCA2, BRM): Luminescence-based cell-based high throughput dose response assay to identify non-selective compounds using the VP16 reporter assay.; format: functional
[25] = molecular target: SWI/SNF-related matrix-associated actin-dependent regulator of chromatin subfamily A member 2 (Homo sapiens, UniProt P51531); test: Luminescence-based cell-based high throughput dose response assay to identify activators of the function of SWI/SNF related, matrix associated, actin dependent regulator of chromatin, subfamily a, member 2 (SMARCA2, BRM).; format: functional
SWI/SNF-related matrix-associated actin-dependent regulator of chromatin subfamily A member 2, sequence (P51531 whole entry): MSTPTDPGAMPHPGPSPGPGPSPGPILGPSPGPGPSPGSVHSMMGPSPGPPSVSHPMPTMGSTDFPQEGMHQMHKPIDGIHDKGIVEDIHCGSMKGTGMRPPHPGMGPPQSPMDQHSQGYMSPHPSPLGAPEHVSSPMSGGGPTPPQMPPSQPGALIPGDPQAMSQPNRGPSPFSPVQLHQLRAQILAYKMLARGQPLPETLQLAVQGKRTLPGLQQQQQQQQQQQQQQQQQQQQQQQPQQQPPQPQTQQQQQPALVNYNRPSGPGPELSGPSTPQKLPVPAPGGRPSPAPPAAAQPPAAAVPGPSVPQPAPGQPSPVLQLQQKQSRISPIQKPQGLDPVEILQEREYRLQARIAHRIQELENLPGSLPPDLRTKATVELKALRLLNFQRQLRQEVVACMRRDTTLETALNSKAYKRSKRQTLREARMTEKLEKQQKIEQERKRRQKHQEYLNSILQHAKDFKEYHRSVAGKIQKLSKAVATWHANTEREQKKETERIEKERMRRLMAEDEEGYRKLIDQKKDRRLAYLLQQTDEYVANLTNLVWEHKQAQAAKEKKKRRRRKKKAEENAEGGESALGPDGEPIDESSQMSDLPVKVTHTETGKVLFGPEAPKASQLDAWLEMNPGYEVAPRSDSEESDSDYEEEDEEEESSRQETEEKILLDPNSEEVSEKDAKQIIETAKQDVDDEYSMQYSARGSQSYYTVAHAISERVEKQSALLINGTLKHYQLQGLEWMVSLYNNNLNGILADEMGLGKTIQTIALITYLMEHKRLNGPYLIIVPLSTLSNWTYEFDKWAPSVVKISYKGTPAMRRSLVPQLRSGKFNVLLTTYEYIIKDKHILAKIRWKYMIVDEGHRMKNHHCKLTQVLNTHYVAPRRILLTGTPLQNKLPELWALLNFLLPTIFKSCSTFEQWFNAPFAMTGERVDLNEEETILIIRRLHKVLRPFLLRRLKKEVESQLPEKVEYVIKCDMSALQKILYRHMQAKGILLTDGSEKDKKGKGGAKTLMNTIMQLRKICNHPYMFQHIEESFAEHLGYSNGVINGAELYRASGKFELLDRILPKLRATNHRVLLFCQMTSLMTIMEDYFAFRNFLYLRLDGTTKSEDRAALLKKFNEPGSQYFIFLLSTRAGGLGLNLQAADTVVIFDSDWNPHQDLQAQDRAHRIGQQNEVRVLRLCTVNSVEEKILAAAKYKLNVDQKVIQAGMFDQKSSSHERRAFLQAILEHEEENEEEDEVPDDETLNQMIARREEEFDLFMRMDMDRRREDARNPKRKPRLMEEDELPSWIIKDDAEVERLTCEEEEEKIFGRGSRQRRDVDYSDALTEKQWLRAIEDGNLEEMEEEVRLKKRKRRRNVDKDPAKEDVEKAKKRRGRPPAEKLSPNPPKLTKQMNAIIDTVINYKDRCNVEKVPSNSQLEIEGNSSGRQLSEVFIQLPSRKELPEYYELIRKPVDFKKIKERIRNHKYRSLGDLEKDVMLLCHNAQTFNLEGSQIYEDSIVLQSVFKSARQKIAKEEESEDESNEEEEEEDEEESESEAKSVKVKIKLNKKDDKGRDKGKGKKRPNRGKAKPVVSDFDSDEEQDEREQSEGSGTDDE

[26] = inhibitors of TNFa-stimulated NF-kB luciferase reporter, dose response, selectivity assay for EBV LMP1 NF-kB inhibitor project, HEK293 LMP1 reporter cells, dry powder, set 2 (AID 624369); format: functional
[27] = inhibitors of LMP1-driven NF-kB reporter, dose response, cell-based, EBV LMP1, luciferase, dry powder, set 2 (AID 624361); format: functional
[28] = LMP1-driven NF-kB reporter inhibition, dose response, cell-based, luciferase reporter, luminescence, dry powder, set 2 (AID 624376); format: functional
[29] = HEK293 cell viability, dose response, counter-screen for EBV LMP1 inhibitor project, dry powder, set 2 (AID 624374); format: functional
[30] = molecular target: Potassium channel subfamily K member 9 (Homo sapiens, UniProt Q9NPC2); test: TASK3 (KCNK9) channel inhibitors, thallium flux, SAR follow-up, selectivity assay for TASK1 inhibitor project, cell-based, FluxOR thallium flux, concentration-response (AID 652211); format: functional;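 note: potency is for inhibitors of the channel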
Potassium channel subfamily K member 9, sequence (Q9NPC2 whole entry): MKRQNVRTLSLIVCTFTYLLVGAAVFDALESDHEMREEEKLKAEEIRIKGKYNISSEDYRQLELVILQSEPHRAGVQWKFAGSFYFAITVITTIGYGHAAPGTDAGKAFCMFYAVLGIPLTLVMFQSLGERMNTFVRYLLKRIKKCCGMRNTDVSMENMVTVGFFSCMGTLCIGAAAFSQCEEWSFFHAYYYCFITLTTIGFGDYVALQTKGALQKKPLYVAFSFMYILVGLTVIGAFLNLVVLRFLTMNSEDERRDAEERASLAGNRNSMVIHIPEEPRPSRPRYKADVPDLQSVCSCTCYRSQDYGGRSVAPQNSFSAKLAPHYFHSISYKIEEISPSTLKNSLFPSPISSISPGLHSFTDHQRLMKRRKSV

Beta-lactamase (Salmonella choleraesuis (strain SC-B67), UniProt Q5J463), sequence (Q5J463 whole entry): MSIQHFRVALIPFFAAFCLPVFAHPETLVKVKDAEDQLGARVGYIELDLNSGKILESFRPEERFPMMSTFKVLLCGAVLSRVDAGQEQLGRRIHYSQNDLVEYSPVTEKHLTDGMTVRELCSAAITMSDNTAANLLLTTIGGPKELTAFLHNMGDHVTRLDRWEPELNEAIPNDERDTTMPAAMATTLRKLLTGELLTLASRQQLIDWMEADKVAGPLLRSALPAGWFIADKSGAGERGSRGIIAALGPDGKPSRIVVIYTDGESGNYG

## O=C(CSc1nnc(NC(=O)C2CC2)s1)NCc1ccccc1Cl
Beta-lactamase [1]
  IC50: > 59.6 µM (inactive)
Beta-lactamase [2]
  IC50: > 59.6 µM (inactive)
Beta-lactamase [3]
  IC50: > 59.6 µM (inactive)

## CC(=O)NN1C(=O)c2ccccc2NC1c1ccccn1 (stereo not given)
[4]
  IC50: 3.49 µM (active)

## Cc1cc(NS(=O)(=O)c2ccc(NC(=O)C(CC(C)C)N3C(=O)c4ccccc4C3=O)cc2)nc(C)n1 (stereo not given)
Aminopeptidase N
  IC50: 38 µM (active)
[5]
  AC50: 8.51 µM (active)
[6]
  AC50: 49.8 µM (active)

## SC1=NC2=C(CCCC2=C2SCCS2)C(c2ccccc2)N1 (stereo not given)
[7]
  IC50: 5.27 µM (active)
[8]
  IC50: 1.23 µM (active)
[9]
  IC50: 22.6 µM (inactive)
[10]
  IC50: > 100 µM (inactive)

## CCCCC[C@H]1CN(CCc2ccccc2)C(=O)[C@@H]1CC(=O)NCc1ccc(OC)cc1
Vero
  AC50: 33.9 µM (active)

## CC(C)CN(C(=O)COC(=O)C12CC3CC(CC(C3)C1)C2)c1c(N)n(Cc2ccccc2)c(=O)[nH]c1=O
[11]
  AC50: 18.3 µM (active)
[12]
  AC50: 17 µM (active)
[13]
  AC50: 9.69 µM (active)
[14]
  AC50: 30.2 µM (active)
[15]
  IC50: > 80 µM (inactive)
[16]
  AC50: 13.7 µM (active)
[17]
  AC50: 16.6 µM (active)
INS1
  AC50: 3.62 µM (active)
[18]
  AC50: 13.1 µM (active)
[19]
  AC50: 11.4 µM (active)
[20]
  AC50: 43.8 µM (active)
[21]
  AC50: 8.64 µM (active)

## O=[N+]([O-])c1cnc(Sc2ccncn2)c([N+](=O)[O-])c1
[22]
  CC50: 34.1 µM (active)
[23]
  IC50: > 80 µM (inactive)

## CC1(C(=O)NCc2cccs2)Cc2c(-c3cccc(C(F)(F)F)c3)ccnc2O1 (stereo not given)
A549
  AC50: 17.6 µM (active)

## CN(C)c1ncnc2c1nnn2C1OC(CO)C(O)C1O (stereo not given)
Paired box protein Pax-8
  AC50: < 0.26 µM (active)
[24]
  EC50: > 91.2 µM (inactive)
[25]
  EC50: > 91.2 µM (inactive)

## CC(C)NC(=O)N1[C@H](CO)[C@H](c2ccc(C#CC3CCCCC3)cc2)[C@@H]1C#N
[26]
  AbsAC35: 202.7 µM
[27]
  AbsAC35: 53.56 µM
[28]
  AbsAC35: 62.28 µM

## C[C@@H]1CN([C@@H](C)CO)C(=O)c2c(c3ccccc3n2C)-c2ccccc2CO[C@H]1CN(C)C(=O)Nc1ccc(F)cc1
[29]
  AbsAC35: 204.77 µM

## Cc1cccc(C(=O)Nc2cccc(NC(=O)c3ccccc3Cl)c2)c1
[30]
  IC50: 19.8 µM (active)
